According to US20230406831A1, “COMPOUNDS AND METHODS OF INHIBITING BACTERIAL CHAPERONIN SYSTEMS” (THE TRUSTEES OF INDIANA UNIVERSITY, priority 2020, published 2023):
Where two headings read alike, the source gives them in different places.

Columns and labels:
[1] = molecular target: T1, native MDH (Sus scrofa, UniProt P00346); experiment: Native MDH enzymatic activity counter-screen; type: biochemical, pig
T1 construct: soluble pig heart MDH from Roche, product #10127248001; purchased Roche 10127248001; host or cells: pig heart
T1 sequence (P00346 25-338): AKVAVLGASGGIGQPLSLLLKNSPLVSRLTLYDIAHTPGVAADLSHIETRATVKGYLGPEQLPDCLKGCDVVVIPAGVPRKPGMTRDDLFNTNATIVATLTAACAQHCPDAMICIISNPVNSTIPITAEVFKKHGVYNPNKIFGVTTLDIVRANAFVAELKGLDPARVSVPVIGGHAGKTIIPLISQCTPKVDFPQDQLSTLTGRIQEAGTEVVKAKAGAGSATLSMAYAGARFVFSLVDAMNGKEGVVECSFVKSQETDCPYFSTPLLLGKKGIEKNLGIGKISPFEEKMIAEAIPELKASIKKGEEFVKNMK
Procedure: Counter-screening compounds for inhibition of native MDH enzymatic activity.
Reagent Preparations & Assay Protocol: This assay was performed as described above for the GroEL/ES-dMDH refolding assay; however, the assay protocol differed in the sequence of compound addition to the assay plates. The refolding reactions were allowed to proceed for 45 min at 37° C. in the absence of test compounds (complete refolding of MDH occurs), then quenched with the EDTA stock. Compounds were then pin-transferred into the plates after the EDTA quenching step; thus, compounds effects are only possible by inhibiting the fully-refolded MDH reporter substrate. Next enzymatic activity of the refolded MDH was initiated by addition of 20 μL MDH enzymatic assay stock (20 mM sodium mesoxalate and 2.4 mM NADH in reaction buffer, 50 mM Tris pH 7.4, 50 mM KCl, 1 mM DTT), and followed by measuring the NADH absorbance in each well at 340 nm using a Molecular Devices SpectraMax Plus384 microplate reader
A340 nm measurements were recorded at 0.5 minutes (start point) and at successive time points until the amount of NADH consumed reached ˜90% (end point, generally between 20-35 minutes). Compounds were tested in 8-point, 3-fold dilution series (62.5 μM to 29 nM during the reporter reaction) in clear, flat-bottom 384-well microtiter plates.
DMSO was used as a negative control, and previously discovered native MDH inhibitors were used as positive controls. IC50 values for the test compounds were obtained by plotting the % inhibition results in GraphPad Prism 6 and analyzing by non-linear regression using the log (inhibitor) vs. response (variable slope) equation. Results presented represent the averages of IC50 values obtained from at least quadriplicate (duplicate of duplicate) replicates.

[2] = molecular target: T2, GroEL/ES (Escherichia coli, UniProt P0A6F5); experiment: GroEL/ES-mediated dMDH refolding assay; type: biochemical, E. coli
T2 construct: made in house; host or cells: GroEL in E. coli DH5a; GroES in E. coli BL21 (DE3)
Procedure: (§1) Evaluation of compounds ability to inhibit GroEL/ES and HSP60/10-mediated dMDH refolding assays.
(§2) Reagent preparation: For these assays, four primary reagent stocks were prepared: 1) GroEL/ES-dMDH or HSP60/10-dMDH binary complex stock; 2) ATP initiation stock; 3) EDTA quench stock; 4) MDH enzymatic assay stock. Denatured MDH (dMDH) was prepared by 2-fold dilution of MDH (5 mg/ml, soluble pig heart MDH from Roche, product #10127248001) with denaturant buffer (7 M guanidine-HCl, 200 mM Tris, pH 7.4, and 50 mM DTT). MDH was completely denatured by incubating at room temperature for 45 min. The binary complex solutions were prepared by slowly adding the dMDH stock to a stirring stock with GroEL (or HSP60) in folding buffer (50 mM Tris-HCl, pH 7.4, 50 mM KCl, 10 mM MglC2, and 1 mM DTT), followed by addition of GroES (or HSP10). The binary complex stocks were prepared immediately prior to dispensing into the assay plates and had final protein concentrations of 83.3 nM GroEL (Mr 800 kDa) or HSP60 (Mr 400 kDa), 100 nM GroES or HSP10 (Mr 70 kDa), and 20 nM dMDH in folding buffer. For the ATP initiation stock, ATP solid was diluted into folding buffer to a final concentration of 2.5 mM. Quench solution contained 600 mM EDTA (pH 8.0). The MDH enzymatic assay stock consisted of 20 mM sodium mesoxalate and 2.4 mM NADH in reaction buffer (50 mM Tris-HCl, pH 7.4, 50 mM KC1, and 1 mM DTT).
(§3) Assay Protocol: First, 30 μL aliquots of the GroEL/ES-dMDH or HSP60/10-dMDH binary complex stocks were dispensed into clear, 384-well polystyrene plates. Next, 0.5 μL of the compound stocks (10 mM to 4.6 μM, 3-fold dilutions series in DMSO) were added by pin-transfer (V&P Scientific). The chaperonin-mediated refolding cycles were initiated by addition of 20 IA of ATP stock (reagent concentrations during refolding cycle: 50 nM GroEL or HSP60, 60 nM GroES or HSP10, 12 nM dMDH, 1 mM ATP, and compounds of 100 μM to 46 nM, 3-fold dilution series). The refolding reactions were incubated at 37° C. The incubation time was determined from refolding time-course control experiments until they reached ˜90% completion of refolding cycle — generally ˜20-40 min for GroEL/ES, and ˜40-60 min for HSP60/10). Next, the assay was quenched by addition of 10 μL of the EDTA to final concentration of 100 mM. […] A340 nm measurements were recorded at 0.5 minutes (start point) and at successive time points until the amount of NADH consumed reached ˜90% (end point, generally between 20-35 minutes). The differences between the start and end point A340 values were used to calculate the % inhibition of the GroEL/ES or HSP60/10 machinery by the compounds. IC50 values for the test compounds were obtained by plotting the % inhibition results in GraphPad Prism 6 and analyzing by non-linear regression using the log (inhibitor) vs. response (variable slope) equation. Results presented represent the averages of IC50 values obtained from at least quadriplicate (duplicate of duplicate) replicates. For results, see Tables 1, 2, and 3.

[3] = molecular target: T3, HSP60/10 (Homo sapiens, UniProt P10809); experiment: HSP60/10-mediated dMDH refolding assay; type: biochemical
T3 construct: octa-Histidine (His8) tag, TEV-cleavable (N, cleaved yes); made in house; host or cells: HSP60 in Rosetta 2 (DE3) E. coli; HSP10 in Rosetta 2 (DE3) pLysS
Procedure: as §1, §2, §3

[4] = Table 2, compounds added after refolding and EDTA quench, read-out: Biochemical Assay IC50 Native MDH Activity
[5] = Table 2, 37° C., 1 mM ATP, read-out: Biochemical Assay IC50 HSP60/10-dMDH Refolding
[6] = Table 3, compounds added after refolding and EDTA quench, read-out: Biochemical Assay IC50 Native MDH Activity
[7] = Table 3, 37° C., 1 mM ATP, read-out: Biochemical Assay IC50 HSP60/10-dMDH Refolding
[8] = Table 1, compounds added after refolding and EDTA quench, read-out: Biochemical Assay IC50 Native MDH Activity
[9] = Table 1, 37° C., 1 mM ATP, read-out: Biochemical Assay IC50 HSP60/10-dMDH Refolding

T2 sequence (P0A6F5 2-548): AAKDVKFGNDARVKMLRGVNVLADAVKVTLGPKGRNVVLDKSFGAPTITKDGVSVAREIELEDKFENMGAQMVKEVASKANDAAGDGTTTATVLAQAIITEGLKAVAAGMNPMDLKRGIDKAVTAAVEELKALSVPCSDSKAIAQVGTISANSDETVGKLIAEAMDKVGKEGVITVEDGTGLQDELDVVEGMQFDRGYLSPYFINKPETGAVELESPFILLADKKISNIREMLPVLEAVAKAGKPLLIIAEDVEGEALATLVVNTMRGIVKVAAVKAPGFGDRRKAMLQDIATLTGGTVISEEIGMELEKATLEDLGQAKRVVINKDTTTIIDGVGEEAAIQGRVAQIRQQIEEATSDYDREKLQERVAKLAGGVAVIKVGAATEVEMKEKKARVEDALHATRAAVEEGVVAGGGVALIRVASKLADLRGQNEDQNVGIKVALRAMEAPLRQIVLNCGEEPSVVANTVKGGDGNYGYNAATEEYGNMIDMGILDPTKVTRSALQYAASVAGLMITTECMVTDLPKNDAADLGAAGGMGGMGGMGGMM
T3 sequence (P10809 27-573): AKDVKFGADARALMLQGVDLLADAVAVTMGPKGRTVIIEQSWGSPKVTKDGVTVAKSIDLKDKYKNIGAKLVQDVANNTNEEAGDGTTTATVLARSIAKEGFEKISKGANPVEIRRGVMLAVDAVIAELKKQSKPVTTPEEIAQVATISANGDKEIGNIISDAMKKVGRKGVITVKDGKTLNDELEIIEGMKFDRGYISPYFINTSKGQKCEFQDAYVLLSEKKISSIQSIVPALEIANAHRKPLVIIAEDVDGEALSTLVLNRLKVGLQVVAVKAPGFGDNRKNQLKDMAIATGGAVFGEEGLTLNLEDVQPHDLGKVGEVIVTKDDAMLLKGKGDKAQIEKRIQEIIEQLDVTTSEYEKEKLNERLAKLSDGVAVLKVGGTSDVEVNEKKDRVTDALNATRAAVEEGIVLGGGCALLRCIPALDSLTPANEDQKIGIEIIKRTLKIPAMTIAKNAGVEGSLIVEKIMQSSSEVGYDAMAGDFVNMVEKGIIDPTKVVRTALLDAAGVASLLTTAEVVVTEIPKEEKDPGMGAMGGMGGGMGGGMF

## COc1ccccc1C(=O)Nc1cc(Cl)c(C(C#N)c2ccc(Cl)cc2)cc1C (centres unmarked) [Compound 61, N-(5-chloro-4-((4-chlorophenyl)(cyano)methyl)-2-methylphenyl)-2-methoxybenzamide]
[1]; [4]
  IC50: > 63 µM
[2]
  IC50: 72 µM
[3]; [5]
  IC50: > 100 µM

## COc1ccc(C)cc1C(=O)Nc1cc(Cl)c(C(C#N)c2ccc(Cl)cc2)cc1C (centres unmarked) [Compound 59, N-(5-chloro-4-((4-chlorophenyl)(cyano)methyl)-2-methylphenyl)-2-methoxy-5-methylbenzamide]
[1]; [4]
  IC50: > 63 µM
[2]
  IC50: 86 µM
[3]; [5]
  IC50: > 100 µM

## COc1ccc(Cl)cc1C(=O)Nc1ccc(Sc2nc3ccccc3s2)c(Cl)c1 [Compound 94, N-(4-(benzo[d]thiazol-2-ylthio)-3-chlorophenyl)-5-chloro-2-methoxybenzamide]
[1]; [6]
  IC50: > 63 µM
[2]
  IC50: 61 µM
[3]; [7]
  IC50: > 100 µM

## Cc1cc(C(C#N)c2ccc(Cl)cc2)c(Cl)cc1NC(=O)c1ccccc1N (centres unmarked) [Compound 70, 2-amino-N-(5-chloro-4-((4-chlorophenyl)(cyano)methyl)-2-methylphenyl)benzamide]
[1]; [4]
  IC50: > 63 µM
[2]
  IC50: 44 µM
[3]; [5]
  IC50: > 100 µM

## Cc1cc(C(C#N)c2ccc(Cl)cc2)c(Cl)cc1NC(=O)c1ccccc1O (centres unmarked) [Compound 64, N-(5-chloro-4-((4-chlorophenyl)(cyano)methyl)-2-methylphenyl)-2-hydroxybenzamide]
[1]; [4]
  IC50: > 63 µM
[2]
  IC50: 33 µM
[3]; [5]
  IC50: 50 µM

## COc1ccc(Cl)cc1C(=O)Nc1ccc(Oc2ccccc2)cc1 [Compound 92, 5-chloro-2-methoxy-N-(4-phenoxyphenyl)benzamide]
[1]; [6]
  IC50: > 63 µM
[2]
  IC50: > 100 µM
[3]; [7]
  IC50: > 100 µM

## COc1ccc(Cl)cc1C(=O)Nc1ccc(CCc2ccccc2)cc1 [Compound 100, 5-chloro-2-methoxy-N-(4-phenethylphenyl)benzamide]
[1]; [6]
  IC50: > 63 µM
[2]
  IC50: > 100 µM
[3]; [7]
  IC50: > 100 µM

## O=C(Nc1ccc(Oc2ccc(Cl)cc2)c(Cl)c1)c1cc(I)cc(I)c1O [Rafoxanide, reference compound]
[1]
  IC50: 17 µM
[2]; Table 1, 37° C., 1 mM ATP, read-out: Biochemical Assay IC50 GroEL/ES-dMDH Refolding
  IC50: 3.8 µM
[3]
  IC50: 2.7 µM

## Cc1cc(C(C#N)c2ccc(Cl)cc2)c(Cl)cc1NC(=O)c1cccc(Cl)c1 (centres unmarked) [Compound 77, 3-chloro-N-(5-chloro-4-((4-chlorophenyl)(cyano)methyl)-2-methylphenyl)benzamide]
[1]; [4]
  IC50: > 63 µM
[2]
  IC50: 63 µM
[3]; [5]
  IC50: > 100 µM

## Cc1cc(C(C#N)c2ccc(Cl)cc2)c(Cl)cc1NC(=O)c1cccc(Br)c1O (centres unmarked) [Compound 48, 3-bromo-N-(5-chloro-4-((4-chlorophenyl)(cyano)methyl)-2-methylphenyl)-2-hydroxybenzamide]
[1]; [4]
  IC50: 48 µM
[2]
  IC50: 12 µM
[3]; [5]
  IC50: 7.7 µM

## Cc1cc(C(C#N)c2ccc(Cl)cc2)c(Cl)cc1NC(=O)c1cccc(F)c1 (centres unmarked) [Compound 80, N-(5-chloro-4-((4-chlorophenyl)(cyano)methyl)-2-methylphenyl)-3-fluorobenzamide]
[1]; [4]
  IC50: > 63 µM
[2]
  IC50: 78 µM
[3]; [5]
  IC50: > 100 µM

## COc1ccc(NC(=O)c2cc(Cl)ccc2O)cc1 [Compound 113, 5-chloro-2-hydroxy-N-(4-methoxyphenyl)benzamide]
[1]; [6]
  IC50: > 63 µM
[2]
  IC50: > 100 µM
[3]; [7]
  IC50: > 100 µM

## Cc1cc(C(C#N)c2ccc(Cl)cc2)c(Cl)cc1NC(=O)c1ccc(O)cc1 (centres unmarked) [Compound 66, N-(5-chloro-4-((4-chlorophenyl)(cyano)methyl)-2-methylphenyl)-4-hydroxybenzamide]
[1]; [4]
  IC50: > 63 µM
[2]
  IC50: 47 µM
[3]; [5]
  IC50: 35 µM

## COC(=O)c1ccc(NC(=O)c2cc(Cl)ccc2OC)cc1 [Compound 106, methyl 4-(5-chloro-2-methoxybenzamido)benzoate]
[1]; [6]
  IC50: > 63 µM
[2]
  IC50: 46 µM
[3]; [7]
  IC50: > 100 µM

## COc1ccc(Cl)cc1C(=O)Nc1ccc(CC#N)cc1 [Compound 110, 5-chloro-N-(4-(cyanomethyl)phenyl)-2-methoxybenzamide]
[1]; [6]
  IC50: > 63 µM
[2]
  IC50: 54 µM
[3]; [7]
  IC50: > 100 µM

## O=C(Nc1cc(Cl)cc(Cl)c1O)c1c(O)c(Cl)cc(Cl)c1Cl [Oxyclosanide, reference compound]
[1]; [8]
  IC50: 54 µM
[2]
  IC50: 45 µM
[3]; [9]
  IC50: 28 µM

## Cc1cc(C(C#N)c2ccc(Cl)cc2)c(Cl)cc1NC(=O)c1cc(Br)cc(Br)c1O (centres unmarked) [Compound 46, 3,5-dibromo-N-(5-chloro-4-((4-chlorophenyl)(cyano)methyl)-2-methylphenyl)-2-hydroxybenzamide]
[1]; [4]
  IC50: 2.3 µM
[2]
  IC50: 1.9 µM
[3]; [5]
  IC50: 2.4 µM

## COc1ccc(C(=O)Nc2cc(Cl)c(C(C#N)c3ccc(Cl)cc3)cc2C)cc1 (centres unmarked) [Compound 63, N-(5-chloro-4-((4-chlorophenyl)(cyano)methyl)-2-methylphenyl)-4-methoxybenzamide]
[1]; [4]
  IC50: > 63 µM
[2]
  IC50: 65 µM
[3]; [5]
  IC50: > 100 µM

## COc1ccc(Cl)cc1C(=O)Nc1ccc(Cc2ccccc2)cc1 [Compound 98, N-(4-benzylphenyl)-5-chloro-2-methoxybenzamide]
[1]; [6]
  IC50: > 63 µM
[2]
  IC50: > 100 µM
[3]; [7]
  IC50: > 100 µM

## Cc1cc(C(C#N)c2ccc(Cl)cc2)c(Cl)cc1NC(=O)c1cc(I)cc(I)c1O (centres unmarked) [Closantel, reference compound]
[1]; [8]
  IC50: 6 µM
[3]; [9]
  IC50: 3 µM
